Measurements from publication PMC3998711 (Nature chemical biology, 2014).
Where two headings read alike, the source gives them in different places.

How the values were obtained:
BRD4(1) = BRD4(1) (Homo sapiens, UniProt O60885); assay: Isothermal titration calorimetry; assay type: binding; conditions: ITC, 15 °C, 50 mM HEPES, 150 mM NaCl
[1] = molecular target: first bromodomain of BRD4, BRD4(1) (Homo sapiens, UniProt O60885); assay: AlphaScreen assay; assay type: binding; conditions: described in words
RSK family kinase = assay: Kinome-wide profiling, RSK family; conditions: read-out: Kds, RSK family; kinome-wide data
PLK family = assay: Kinome-wide profiling, PLK family
MV4-11 AML cells = assay: MV4-11 proliferation assay; assay type: cell-based, human; conditions: read-out: IC50, proliferation of MV4-11 AML cells
c-Myc [2] = assay: Western blot analysis of cellular c-Myc levels in MM.1S cells; assay type: cell-based, human; conditions: 6 h; for c-Myc levels (western blot): MM.1S cells, inhibitor 5 μM; for IC50: Homo sapiens, MM1.S, read-out: IC50 for c-Myc suppression
c-Myc [3] = assay: Western blot of c-Myc levels in Molm14 cell lines; assay type: cell-based, human; conditions: FLT3 inhibitor-sensitive and -resistant lines, 6 h
[4] = tested on: 12 primary human cell-based BioMAP systems; assay: BioMAP primary human cell disease model assay systems
[5] = tested on: MM.1S multiple myeloma cells; assay: MM.1S proliferation assay; assay type: cell-based; conditions: Homo sapiens, MM1.S, 72 h, read-out: IC50, MM.1S proliferation

`CC(C)CCN1c2nc(Nc3cc(F)c(O)c(F)c3)ncc2N(C)C(=O)C1C` (stereo not shown) [BI-D1870] was tested, and the Kd (BRD4(1)) was 3500 ± 170 nM, the “AlphaScreen dose response IC50” value [1] was “nanomolar” and the Kd (RSK family kinase) was 10 to 100 nM. The “PLK family potencies lower than for BI-2536” value (PLK family) was 10–100 fold and the Kd (PLK family; read-out: Kds, PLK family, kinome-wide data) was roughly 10 nM.
In the case of `COc1cc2c(cc1-c1c(C)noc1C)ncc1[nH]c(=O)n([C@H](C)c3ccccn3)c12` [I-BET], the IC50 (MV4-11 AML cells; 72 h) is reported as 200 nM.
For `N#CC[C@H](C1CCCC1)n1cc(-c2ncnc3[nH]ccc23)cn1` [ruxolitinib], the “c-Myc levels (western blot)” value (c-Myc [2]) was “did not affect c-Myc levels” and the IC50 (MV4-11 AML cells; Homo sapiens, MV4-11, 72 h) was roughly 10000 nM.
In the case of `CC[C@@H]1C(=O)N(C)c2cnc(Nc3ccc(C(=O)NC4CCN(C)CC4)cc3OC)nc2N1C1CCCC1` [BI-2536], the IC50 (c-Myc [2]) is reported as roughly 100 nM and the “c-Myc levels (western blot)” value (c-Myc [2]) is reported as “strong c-Myc down regulation”.
Work on `CN(c1ccccc1CNc1nc(Nc2ccc3c(c2)CC(=O)N3)ncc1C(F)(F)F)S(C)(=O)=O` [PF-431396] yielded a Kd (BRD4(1); error of the fit) of 445 ± 42 nM.
In the case of `C[C@@H]1CCN(C(=O)CC#N)C[C@@H]1N(C)c1ncnc2[nH]ccc12` [tofacitinib], the “c-Myc levels (western blot)” value (c-Myc [2]) is reported as “did not affect c-Myc levels”.
In the case of `Cc1sc2c(c1C)C(c1ccc(Cl)cc1)=N[C@@H](CC(=O)OC(C)(C)C)c1nnc(C)n1-2` [JQ1], the “c-Myc expression in Molm14 cell lines” value (c-Myc [3]) is reported as “inhibits c-Myc expression with similar potencies” and the IC50 (MV4-11 AML cells; 72 h) is reported as 28 nM.
With `Cc1cnc(Nc2ccc(OCCN3CCCC3)cc2)nc1Nc1cccc(S(=O)(=O)NC(C)(C)C)c1` [TG-101348] the IC50 (c-Myc [2]) was 1000 to 3000 nM, the “c-Myc levels (western blot)” value (c-Myc [2]) was “strong c-Myc down regulation” and the “production of TNFα, MIG and IL-8” value [4] was “inhibited”. It also gave an IC50 [5] of 1000 to 3000 nM.
For `C[C@@H](Oc1cc(-n2cnc3ccc(CN4CCN(C)CC4)cc32)sc1C(N)=O)c1ccccc1C(F)(F)F` [GSK-461364A], the “c-Myc levels (western blot)” value (c-Myc [2]) was “did not affect c-Myc levels”.
